Here are results for one compound from paper PMC8959600 (eLife, 2022).

One data set relates to Shigella flexneri 2457T. In words: Resazurin growth inhibition, dose response (IC50/IC90) in Müller Hinton medium. Type of data set: cell-based. How it is done:
We developed a high-throughput screening (HTS) method to identify compounds that could inhibit the growth of Shigella flexneri 2457T in Müller Hinton medium (Sigma Aldrich, UK). We adapted a resazurin reduction protocol from Franzblau et al. as surrogate readout for bacterial viability because it provided a stable signal, a low interference level, and was cost effective ([Franzblau et al., 1998]). Prior to the day of experimentation, one colony was used to inoculate 50 mL Mueller Hinton medium, and the culture was incubated overnight at 37 °C. The next day, 500 μL of the bacterial culture were inoculated into 50 mL fresh Mueller Hinton medium and bacterial growth was measured periodically at 600 nm. When the culture reached OD = 0.4–0.6, the inoculum was diluted to 1 × 10^6 CFU/mL; this bacterial suspension was added to compound pre-dispensed plates for screening.
The assay was performed in 1536-well polystyrene assay plates (HiBase, μClear, Greiner Bio‐One) and used to screen ~1.7 million compounds from (a) GSK naïve chemical diversity, (b) GSK antibacterial programs, and (c) marketed antimicrobial agents. All commercially available chemicals were purchased from either Sigma Aldrich, UK, AK Scientific, or Fischer Chemicals. The GSK compound screening set was sub-selected from the 8 million compound GSK collection using the principles described by Harper and co-workers ([Harper et al., 2004]). The process to generate the structural filters to remove compounds bearing undesirable/reactive chemotypes and/or non-developable physicochemical properties has been described previously by [Chakravorty et al., 2018]. […]. The set of marketed antibacterial agents included most commercial antimicrobial agents.
For screening, plates were prepared by dispensing 50 nl of compound from master plates at 1 mM in each well using a LabCyte Echo system. The final assay volume was 5 μl and the final compound concentration was 10 µM. The 11th and 12th columns were growth controls containing 50 nL of DMSO. The 34th and 35th columns contained 50 nL of Moxifloxacin at 20 μM as negative growth controls. Five µl of bacterial inoculum was dispensed into compound pre-dispensed plates using a Multidrop Combi dispenser (Thermo Scientific). Plates were agitated for 10 s to ensure mixing and incubated at 37 °C overnight (16–17 hr). Following overnight culture, 2 µl resazurin solution (Resazurin tablets for milk testing, BDH) was added to each well and incubated at room temperature in the dark for 3 hr. Fluorescence intensity was measured using an Envision plate reader (PerkinElmer). […] Data were analysed using Base software and statistical cut-off analysis was used for ‘hit’ selection following a standard GSK protocol. To calculate the statistical cut-off, percentage growth inhibition was calculated per well according to the plate controls, these values were aggregated to calculate the robust mean and standard deviation (SD) of the distribution. The robust mean was calculated starting from the median and the MAD of the distribution with an iterative process that aimed to remove outliers. Once the mean and SD were calculated, all compounds above mean + 3 SD were selected as primary hits.
After the initial screen, we generated fresh samples of the primary compound hits and tested them in duplicate against S. flexneri 2457T at 10 μM to confirm activity. The confirmed hit list was narrowed by applying the following filters: a 30% cut-off value, absence of undesirable structural features (e.g. electrophiles, peroxides, and Michael acceptors) and reduced physicochemical risk (maximum five aromatic rings and PFI <8)([Leeson and Young, 2015]). […].
On the technique in general: The colour change of resazurin is a common sign of viable cells or microbes.

The subject of data set [1] is clinical isolates of Shigella. The data set is described as follows: MIC by micro dilution, clinical Shigella isolates from Vietnam and Kenya. Type of data set: cell-based, Shigella spp. The settings on record: all clinical isolates of Shigella (82 Vietnam, 53 Kenya). From the text:
(§1) Selected compounds, including Tebipenem, were profiled against a panel of […] clinical isolates of enteric pathogens comprised of Shigella (Vietnam and Kenya; n = 135), non-typhoidal Salmonella (Vietnam; n = 117), Campylobacter (Vietnam; n = 75), and various pathogenic E. coli species (Vietnam; n = 7) ([Butcher et al., 2014]). The antimicrobial susceptibility profile of these organisms is described in Supplementary file 1.
(§2) Compound screening and dose response assays have been described previously ([Van Voorhis et al., 2016]; [Wiegand et al., 2008]). Briefly, the selected bacteria were cultured on the Luria-Bertani agar overnight at 37 °C (Campylobacter isolates were grown in 2.5% Laked Horse Blood cation-adjusted Mueller Hinton medium (CAMHB, Sigma Aldrich) and incubated in microaerophilic conditions (10% CO2, 5% O2 and 85% N2) at 42 °C); colonies were added to sterile PBS to form 0.5 McFarland solutions. […] The activity of the chemical was recorded as being active (yes) or non-active (no) for each of the tested chemicals. A non-active result was recorded when there was no evidence of bacterial inhibition, and the culture area was indistinguishable from the negative control.
(§3) MICs were evaluated using the micro dilution assay in Müller Hinton broth using 1 mM chemical stock solutions, and a final concentration of 5 × 10^5 CFU/mL bacteria. […]

A further data set deals with E. coli. The data set is described as follows: MIC by micro dilution, clinical E. coli isolates from Vietnam. Type of data set: cell-based. The settings on record: Escherichia coli; seven E. coli from diarrhoeal cases in Vietnam; read-out: median MIC.
Text: as §1, §2, §3

In data set [2] the test system is clinical isolates of Shigella (S. flexneri EG478, S. flexneri_01_0417, S. sonnei_02_1181). In words: Time-kill curve assays. The class given is cell-based, Shigella spp. How it is done:
Time-kill curve assays were performed in 20 mL volume in 50 mL tubes by culturing 5 × 10^5 CFU/mL Shigella spp. in Müller Hinton broth in the presence of four antimicrobial concentrations in doubling dilutions ranging from 0.5xMIC to 4xMIC. Bacteria were grown with agitation at 200 rpm at 37 °C and monitored over a time-course of 24 hr (0, 2, 4, 6, 8, and 24 hr). For each concentration and time point, 100 μL of bacterial culture were diluted and used to inoculate Luria-Bertani agar plates that were incubated at 37 °C overnight. Next, bacterial colonies were enumerated.

The subject of the next data set is S. flexneri 2457T. Type of data set: in vivo. The conditions noted are these: mice, 39 mg/kg Tebipenem freebase subcutaneously, 24 hr after intraperitoneal infection.
The conditions of data set [3]: paediatric population, Tebipenem-Pivoxil PO; ref Sato et al., 2008; cited from earlier work.

In brackets after ≈: the same amount, converted by molar mass. Some results are limits rather than exact numbers.

As usually defined, the MIC is the smallest concentration in the dilution series that meets the test's criterion for growth inhibition. Usually IC90 stands for the concentration at which the effect reaches the 90% level. A higher IC90 goes with weaker potency. Usually Cmax stands for the peak of the concentration-time curve. On to `C[C@@H](O)[C@H]1C(=O)N2C(C(=O)O)=C(SC3CN(C4=NCCS4)C3)[C@H](C)[C@H]12` [Tebipenem], for which the MIC in the data set with Shigella flexneri 2457T (2457T, read-out: estimated MIC of S. flexneri 2457T) was 0.39 µM. Moreover, the IC90 with Shigella flexneri 2457T (ATCC700930) was found to be 0.01 µg/mL (≈ 0.0261 µM). For the same compound, the “MIC values, range” value in data set [1] is recorded as 0.04 to 0.3 µM. The MIC in the data set with E. coli was under 0.1 µM. Further, in data set [2] (higher concentrations (2–4 x MIC), 24 hr), the “time kill, antibacterial activity” value was “protracted antibacterial activity”. Moreover, the “time kill, population behaviour” value in data set [2] (lower concentrations (0.5–1 x MIC), after 6 hr exposure, all three isolates) is “Population rebounds occurred”. In addition, the “reduction of organisms in the small intestine” value in the data set on S. flexneri 2457T is reported as 1.2 log. Moreover, in data set [3], the AUC0-tlast was 16000 ng·h/mL and the Cmax is 7500 ng/mL.
